According to ChEMBL document CHEMBL4814074 (Bioorg Med Chem Lett, 2021):

Experiments:
hERG (KCNH2) = hERG (KCNH2) (Homo sapiens, UniProt Q12809); experiment: Inhibition of human ERG at 3 uM relative to control
Lassa virus [1] = experiment: Antiviral activity against pseudotyped Lassa mammarenavirus; assay type: functional, organism-based; details: Mammarenavirus lassaense
Machupo mammarenavirus = experiment: Antiviral activity against pseudotyped Machupo virus; assay type: functional, organism-based; details: Mammarenavirus machupoense
Junin virus [2] = experiment: Antiviral activity against pseudotyped Junin virus; assay type: functional, organism-based; details: Mammarenavirus juninense
[3] = (§1) Cytotoxicity against African green monkey Vero cells measured after 5 days; assay type: cell-based; details: chlorocebus sabaeus, Vero cells; time 5 day
Vero = experiment: as §1; assay type: cell-based; details: chlorocebus sabaeus, vero, 120 h; time 5 day
Junin virus [4] = experiment: Antiviral activity against Junin virus by virus yield reduction assay; assay type: functional, organism-based; details: Mammarenavirus juninense
CYP2C19 = CYP2C19 (Homo sapiens, UniProt P33261); experiment: Inhibition of CYP2C19 (unknown origin) at 20 uM; assay type: ADME
CYP2D6 = CYP2D6 (Homo sapiens, UniProt P10635); experiment: Inhibition of CYP2D6 (unknown origin) at 20 uM; assay type: ADME
CYP2C9 = CYP2C9 (Homo sapiens, UniProt P11712); experiment: Inhibition of CYP2C9 (unknown origin) at 20 uM; assay type: ADME
CYP3A4 = CYP3A4 (Homo sapiens, UniProt P08684); experiment: Inhibition of CYP3A4 (unknown origin) at 20 uM; assay type: ADME
CYP1A2 = molecular target: T1, CYP1A2 (Homo sapiens, UniProt P05177); experiment: Inhibition of CYP1A2 (unknown origin) at 20 uM; assay type: ADME
T1 sequence (P05177 whole entry): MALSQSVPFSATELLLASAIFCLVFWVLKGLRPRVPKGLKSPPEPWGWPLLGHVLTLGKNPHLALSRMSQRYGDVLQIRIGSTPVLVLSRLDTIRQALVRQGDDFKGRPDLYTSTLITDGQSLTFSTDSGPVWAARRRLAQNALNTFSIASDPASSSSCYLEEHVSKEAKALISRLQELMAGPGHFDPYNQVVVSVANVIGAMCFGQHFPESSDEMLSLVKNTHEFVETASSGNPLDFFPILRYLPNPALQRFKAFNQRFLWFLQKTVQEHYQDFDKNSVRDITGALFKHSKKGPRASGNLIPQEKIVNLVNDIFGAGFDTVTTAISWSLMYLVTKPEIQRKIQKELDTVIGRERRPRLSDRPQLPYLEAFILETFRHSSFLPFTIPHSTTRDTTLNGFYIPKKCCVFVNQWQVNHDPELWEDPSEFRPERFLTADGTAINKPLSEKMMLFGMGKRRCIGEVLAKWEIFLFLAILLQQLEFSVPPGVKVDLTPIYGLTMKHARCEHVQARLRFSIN

Lassa virus [5] = experiment: Antiviral activity against Lassa virus by virus yield reduction assay; assay type: functional, organism-based; details: Mammarenavirus lassaense
Lassa virus [6] = experiment: Antiviral activity against Lassa virus by plaque reduction assay; assay type: functional, organism-based; details: Mammarenavirus lassaense

CYP2C19, sequence (P33261 whole entry): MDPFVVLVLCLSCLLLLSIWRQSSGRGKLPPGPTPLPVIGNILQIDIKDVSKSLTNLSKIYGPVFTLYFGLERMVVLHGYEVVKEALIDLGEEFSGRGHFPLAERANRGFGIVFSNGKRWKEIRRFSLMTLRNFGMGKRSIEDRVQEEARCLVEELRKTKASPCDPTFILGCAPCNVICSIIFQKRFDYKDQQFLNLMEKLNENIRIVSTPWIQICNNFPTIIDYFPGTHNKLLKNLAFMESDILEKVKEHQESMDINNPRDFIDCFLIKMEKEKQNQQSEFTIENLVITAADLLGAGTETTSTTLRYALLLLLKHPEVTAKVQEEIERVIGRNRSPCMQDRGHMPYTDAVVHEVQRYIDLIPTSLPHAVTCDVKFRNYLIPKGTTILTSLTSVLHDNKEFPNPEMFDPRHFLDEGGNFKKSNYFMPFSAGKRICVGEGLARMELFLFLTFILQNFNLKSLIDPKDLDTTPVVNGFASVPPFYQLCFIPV
CYP3A4, sequence (P08684 whole entry): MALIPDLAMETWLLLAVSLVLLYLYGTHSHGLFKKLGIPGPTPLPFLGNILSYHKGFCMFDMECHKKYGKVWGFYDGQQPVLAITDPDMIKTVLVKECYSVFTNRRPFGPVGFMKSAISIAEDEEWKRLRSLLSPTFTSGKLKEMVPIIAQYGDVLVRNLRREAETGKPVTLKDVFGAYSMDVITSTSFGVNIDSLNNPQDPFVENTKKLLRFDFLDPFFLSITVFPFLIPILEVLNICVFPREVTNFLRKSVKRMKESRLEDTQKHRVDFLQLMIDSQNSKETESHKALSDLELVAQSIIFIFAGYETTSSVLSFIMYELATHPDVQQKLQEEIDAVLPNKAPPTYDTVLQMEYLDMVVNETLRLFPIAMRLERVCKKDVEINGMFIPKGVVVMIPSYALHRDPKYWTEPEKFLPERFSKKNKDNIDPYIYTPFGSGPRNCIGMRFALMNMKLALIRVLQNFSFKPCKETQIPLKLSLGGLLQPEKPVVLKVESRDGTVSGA
CYP2C9, sequence (P11712 whole entry): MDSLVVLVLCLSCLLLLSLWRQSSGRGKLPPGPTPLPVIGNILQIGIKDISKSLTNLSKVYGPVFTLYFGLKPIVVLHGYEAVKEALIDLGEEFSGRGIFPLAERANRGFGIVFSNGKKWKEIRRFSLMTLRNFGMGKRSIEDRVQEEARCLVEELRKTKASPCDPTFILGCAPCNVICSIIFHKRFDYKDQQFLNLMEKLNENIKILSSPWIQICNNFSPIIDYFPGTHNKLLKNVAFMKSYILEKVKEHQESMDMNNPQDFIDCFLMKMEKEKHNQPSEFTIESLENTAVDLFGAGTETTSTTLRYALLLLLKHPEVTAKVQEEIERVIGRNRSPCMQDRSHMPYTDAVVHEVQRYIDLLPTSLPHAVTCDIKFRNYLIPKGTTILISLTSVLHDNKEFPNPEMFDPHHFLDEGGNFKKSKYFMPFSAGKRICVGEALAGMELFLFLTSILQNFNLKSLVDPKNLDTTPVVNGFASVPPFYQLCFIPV
hERG (KCNH2), sequence (Q12809 whole entry): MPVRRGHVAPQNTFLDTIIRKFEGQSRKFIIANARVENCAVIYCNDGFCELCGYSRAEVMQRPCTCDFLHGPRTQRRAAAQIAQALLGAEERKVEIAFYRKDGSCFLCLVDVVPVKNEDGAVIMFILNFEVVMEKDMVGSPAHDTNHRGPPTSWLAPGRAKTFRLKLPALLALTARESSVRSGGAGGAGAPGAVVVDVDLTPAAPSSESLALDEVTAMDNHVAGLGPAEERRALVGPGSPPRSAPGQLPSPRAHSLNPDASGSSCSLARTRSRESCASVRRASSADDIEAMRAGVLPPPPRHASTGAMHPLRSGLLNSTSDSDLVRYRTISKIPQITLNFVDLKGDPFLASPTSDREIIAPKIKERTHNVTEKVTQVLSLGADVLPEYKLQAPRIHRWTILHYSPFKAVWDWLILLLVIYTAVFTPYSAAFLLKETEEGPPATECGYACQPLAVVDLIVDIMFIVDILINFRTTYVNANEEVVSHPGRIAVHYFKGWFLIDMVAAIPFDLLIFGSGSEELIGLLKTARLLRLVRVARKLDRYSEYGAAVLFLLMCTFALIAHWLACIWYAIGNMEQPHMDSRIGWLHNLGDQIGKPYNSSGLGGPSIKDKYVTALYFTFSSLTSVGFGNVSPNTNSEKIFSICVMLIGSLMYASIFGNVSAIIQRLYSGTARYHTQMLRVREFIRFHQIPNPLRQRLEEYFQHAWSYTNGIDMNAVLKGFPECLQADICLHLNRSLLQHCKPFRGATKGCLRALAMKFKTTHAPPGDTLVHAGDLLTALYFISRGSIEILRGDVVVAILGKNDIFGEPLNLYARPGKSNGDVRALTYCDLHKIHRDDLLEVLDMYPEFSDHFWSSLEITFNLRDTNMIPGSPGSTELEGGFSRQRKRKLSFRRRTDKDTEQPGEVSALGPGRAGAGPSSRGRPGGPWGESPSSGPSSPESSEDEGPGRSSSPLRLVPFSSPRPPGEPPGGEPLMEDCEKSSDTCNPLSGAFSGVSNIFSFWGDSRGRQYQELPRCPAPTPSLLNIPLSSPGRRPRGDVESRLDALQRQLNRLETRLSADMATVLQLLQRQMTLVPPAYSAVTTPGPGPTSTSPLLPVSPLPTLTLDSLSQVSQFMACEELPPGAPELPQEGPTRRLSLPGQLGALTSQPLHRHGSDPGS
CYP2D6, sequence (P10635 whole entry): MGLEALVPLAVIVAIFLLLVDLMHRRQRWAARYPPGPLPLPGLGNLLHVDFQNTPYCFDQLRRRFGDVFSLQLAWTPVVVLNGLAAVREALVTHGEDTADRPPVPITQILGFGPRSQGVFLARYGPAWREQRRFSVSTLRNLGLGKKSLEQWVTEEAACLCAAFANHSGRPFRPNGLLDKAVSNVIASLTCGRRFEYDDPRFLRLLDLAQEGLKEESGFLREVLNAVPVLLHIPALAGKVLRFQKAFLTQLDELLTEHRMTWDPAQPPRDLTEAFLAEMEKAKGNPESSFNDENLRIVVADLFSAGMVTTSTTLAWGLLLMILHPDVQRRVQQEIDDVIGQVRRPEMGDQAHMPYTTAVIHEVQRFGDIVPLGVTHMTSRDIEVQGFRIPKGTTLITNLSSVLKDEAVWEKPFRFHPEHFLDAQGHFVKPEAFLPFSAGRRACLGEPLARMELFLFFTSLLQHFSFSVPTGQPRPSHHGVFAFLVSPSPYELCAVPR

CC(C)Oc1ccc(-c2ccc3ncn(-c4ccc(OC(C)C)cc4)c3n2)cc1
inhibition at 3 µM (hERG (KCNH2)): < 10%

CC(C)Oc1ccc(-c2ccn3cnc(-c4ccc(OC(C)C)cc4)c3c2)cc1
EC50 (Lassa virus [1]): 20.9 nM
EC50 (Machupo mammarenavirus): > 25 nM
EC50 (Junin virus [2]): 21.8 nM
CC50 at 120 h [3]: 7540 nM

Cc1c(-c2ccc(OC(C)C)cc2)ccc2ncc(-c3ccc(OC(C)C)cc3)n12
EC50 (Lassa virus [1]): 0.32 nM
EC50 (Machupo mammarenavirus): 0.16 nM
EC50 (Junin virus [2]): 0.17 nM
CC50 (Vero): 4190 nM

Cc1cc2nnn(-c3ccc(OC(C)C)cc3)c2cc1-c1ccc(OC(C)C)cc1
EC50 (Junin virus [4]): < 1 nM
EC90 (Junin virus [4]): 2.4 nM
EC50 (Lassa virus [1]): 1.05 nM
EC50 (Machupo mammarenavirus): 0.52 nM
EC50 (Junin virus [2]): 0.21 nM
inhibition at 3 µM (hERG (KCNH2)): < 10%

CC(C)Oc1ccc(-c2ccc3nnn(-c4ccc(OC(C)C)cc4)c3c2)cc1
inhibition at 3 µM (hERG (KCNH2)): 17%

CC(C)Oc1ccc(-c2cnc3ccc(-c4ccc(OCCN5CCOCC5)cc4)cn23)cc1
EC50 (Lassa virus [1]): > 25 nM
EC50 (Machupo mammarenavirus): > 25 nM
EC50 (Junin virus [2]): > 25 nM

CC(C)Oc1ccc(-c2ccc3ncc(-c4ccc(OC(C)(C)C)cc4)n3c2)cc1
inhibition at 3 µM (hERG (KCNH2)): 48%

Cc1cc2ncc(-c3ccc(OC(C)C)cc3)n2cc1-c1ccc(OC(C)C)cc1
inhibition at 20 µM (CYP2C19): < 21%
inhibition at 20 µM (CYP2D6): < 21%
inhibition at 20 µM (CYP2C9): < 21%
inhibition at 20 µM (CYP3A4): < 21%
inhibition at 20 µM (CYP1A2): < 21%
inhibition at 3 µM (hERG (KCNH2)): 14%

CC(C)Oc1ccc(-c2ccc3ncn(-c4ccc(OC(C)C)cc4)c3c2)cc1
inhibition at 3 µM (hERG (KCNH2)): 30%

CC(C)Oc1ccc(-c2cnc3ncc(-c4ccc(OC(C)C)cc4)n3c2)cc1
inhibition at 3 µM (hERG (KCNH2)): 37%

CC(C)Oc1ccc(-c2ccc3nnc(-c4ccc(OC(C)C)cc4)n3c2)cc1
inhibition at 3 µM (hERG (KCNH2)): 57%

CC(C)Oc1ccc(-c2ccc3cnn(-c4ccc(OC(C)C)cc4)c3c2)cc1
EC50 (Lassa virus [1]): > 25 nM
EC50 (Machupo mammarenavirus): > 25 nM
EC50 (Junin virus [2]): 14 nM

CC(C)Oc1ccc(-c2cnc3ccc(-c4ccc(C(N)=O)cc4)cn23)cc1
EC50 (Lassa virus [1]): > 25 nM
EC50 (Machupo mammarenavirus): > 25 nM
EC50 (Junin virus [2]): > 25 nM

CC(C)Oc1ccc(-c2ccc3cnc(-c4ccc(OC(C)C)cc4)n3c2)cc1
EC50 (Lassa virus [1]): > 25 nM
EC50 (Machupo mammarenavirus): > 25 nM
EC50 (Junin virus [2]): > 25 nM

Cc1cc2ncc(-c3ccc(OC(C)(C)C)cc3)n2cc1-c1ccc(OC(C)C)cc1
inhibition at 20 µM (CYP2C19): < 21%
inhibition at 20 µM (CYP2D6): < 21%
inhibition at 20 µM (CYP2C9): < 21%
inhibition at 20 µM (CYP3A4): < 21%
inhibition at 20 µM (CYP1A2): < 21%
EC50 (Lassa virus [5]): < 0.3 nM
EC90 (Lassa virus [5]): 0.87 nM
EC50 (Junin virus [4]): 0.6 nM
EC90 (Junin virus [4]): 1.2 nM
EC50 (Lassa virus [6]): < 3.3 nM
EC90 (Lassa virus [6]): < 3.3 nM
EC50 (Lassa virus [1]): 0.68 nM
EC50 (Machupo mammarenavirus): 0.17 nM
EC50 (Junin virus [2]): 0.3 nM
inhibition at 3 µM (hERG (KCNH2)): < 10%

Cc1cc2ncn(-c3ccc(OC(C)C)cc3)c2cc1-c1ccc(OC(C)C)cc1
inhibition at 20 µM (CYP2C19): < 21%
inhibition at 20 µM (CYP2D6): < 21%
inhibition at 20 µM (CYP2C9): < 21%
inhibition at 20 µM (CYP3A4): 44%
inhibition at 20 µM (CYP1A2): < 21%
EC50 (Lassa virus [5]): 1.2 nM
EC90 (Lassa virus [5]): 2.1 nM
EC50 (Lassa virus [6]): < 3.3 nM
EC90 (Lassa virus [6]): < 4.2 nM
EC50 (Lassa virus [1]): 0.65 nM
EC50 (Machupo mammarenavirus): 0.17 nM
EC50 (Junin virus [2]): 0.11 nM
inhibition at 3 µM (hERG (KCNH2)): < 10%

CC(C)Oc1ccc(-c2cnc3ccc(-c4ccc(OC(C)C)cc4F)cn23)cc1
EC50 (Lassa virus [1]): > 25 nM
EC50 (Machupo mammarenavirus): > 25 nM
EC50 (Junin virus [2]): > 25 nM

Cc1cc2ncn(-c3ccc(OC(C)(C)C)cc3)c2cc1-c1ccc(OC(C)(C)O)cc1
inhibition at 20 µM (CYP2C19): < 21%
inhibition at 20 µM (CYP2D6): < 21%
inhibition at 20 µM (CYP2C9): < 21%
inhibition at 20 µM (CYP3A4): < 21%
inhibition at 20 µM (CYP1A2): < 21%
EC50 (Lassa virus [5]): < 0.3 nM
EC90 (Lassa virus [5]): < 0.3 nM
EC50 (Junin virus [4]): 0.9 nM
EC90 (Junin virus [4]): 6.2 nM
EC50 (Lassa virus [6]): < 3.3 nM
EC90 (Lassa virus [6]): < 3.3 nM
EC50 (Lassa virus [1]): 4 nM
EC50 (Machupo mammarenavirus): 0.12 nM
EC50 (Junin virus [2]): 1 nM
inhibition at 3 µM (hERG (KCNH2)): < 10%

CC(C)Oc1ccc(-c2ccc3ncc(-c4ccc(OC(C)C)cc4)n3c2)cc1
inhibition at 3 µM (hERG (KCNH2)): 89%

CC(C)Oc1ccc(-c2ccc3ccn(-c4ccc(OC(C)C)cc4)c3c2)cc1
EC50 (Lassa virus [1]): > 25 nM
EC50 (Machupo mammarenavirus): 20.6 nM
EC50 (Junin virus [2]): 0.89 nM
